Experimental data from patent US10308639B2, “Phosphatidylinositol 3-kinase inhibitors” (Gilead Sciences, Inc., priority 2014, dated 2019).
Where two headings read alike, the source gives them in different places.

How the values were obtained:
Assay type in all cases: biochemical
[1] = molecular target: T1, PI3Kδ (Homo sapiens, UniProt O00329); experiment: TR-FRET enzymatic activity assay, PI3Kδ
T1 construct: made in house

[2] = molecular target: T2, PI3Kγ (Homo sapiens, UniProt P48736); experiment: TR-FRET enzymatic activity assay, PI3Kγ; details: read-out: PI3Kγ IC50
T2 construct: made in house
Procedure, shortened: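 Each PI3K isoform is tested in an enzymatic format. Signal comes from time-resolved fluorescence energy transfer.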

[3] = molecular target: T3, PI3Kβ (Homo sapiens, UniProt P42338); experiment: TR-FRET enzymatic activity assay, PI3Kβ
T3 construct: made in house

[4] = Table 2, TR-FRET, 2x Km ATP, 30 minutes at 25° C.

T2 sequence (P48736 whole entry): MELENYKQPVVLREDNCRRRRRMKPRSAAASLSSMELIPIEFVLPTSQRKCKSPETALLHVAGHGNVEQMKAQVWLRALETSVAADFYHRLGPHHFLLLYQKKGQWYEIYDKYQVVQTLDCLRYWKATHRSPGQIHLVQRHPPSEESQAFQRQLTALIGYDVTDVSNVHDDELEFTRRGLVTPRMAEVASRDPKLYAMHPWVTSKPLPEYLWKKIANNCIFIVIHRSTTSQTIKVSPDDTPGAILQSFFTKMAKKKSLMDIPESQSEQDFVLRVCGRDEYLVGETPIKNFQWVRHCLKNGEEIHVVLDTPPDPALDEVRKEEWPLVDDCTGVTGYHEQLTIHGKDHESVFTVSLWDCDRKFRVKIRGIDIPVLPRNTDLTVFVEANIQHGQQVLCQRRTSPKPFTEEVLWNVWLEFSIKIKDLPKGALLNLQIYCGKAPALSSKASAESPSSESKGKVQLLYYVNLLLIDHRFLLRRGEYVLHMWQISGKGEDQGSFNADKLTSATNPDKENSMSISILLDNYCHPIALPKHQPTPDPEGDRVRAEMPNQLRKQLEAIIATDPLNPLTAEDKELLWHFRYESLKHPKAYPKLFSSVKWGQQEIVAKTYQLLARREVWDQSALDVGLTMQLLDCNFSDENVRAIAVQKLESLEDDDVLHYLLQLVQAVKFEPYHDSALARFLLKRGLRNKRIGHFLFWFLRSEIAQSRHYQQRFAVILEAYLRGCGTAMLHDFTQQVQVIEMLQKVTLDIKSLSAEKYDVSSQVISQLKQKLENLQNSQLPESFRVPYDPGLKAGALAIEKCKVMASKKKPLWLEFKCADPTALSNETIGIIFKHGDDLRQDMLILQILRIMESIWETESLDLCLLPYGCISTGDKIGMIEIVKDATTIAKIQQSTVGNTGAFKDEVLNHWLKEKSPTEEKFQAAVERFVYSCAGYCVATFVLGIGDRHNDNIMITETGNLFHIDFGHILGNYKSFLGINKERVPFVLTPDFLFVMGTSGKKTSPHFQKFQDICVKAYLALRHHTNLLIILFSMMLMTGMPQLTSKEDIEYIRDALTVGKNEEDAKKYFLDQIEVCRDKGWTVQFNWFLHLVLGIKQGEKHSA
T3 sequence (P42338 whole entry): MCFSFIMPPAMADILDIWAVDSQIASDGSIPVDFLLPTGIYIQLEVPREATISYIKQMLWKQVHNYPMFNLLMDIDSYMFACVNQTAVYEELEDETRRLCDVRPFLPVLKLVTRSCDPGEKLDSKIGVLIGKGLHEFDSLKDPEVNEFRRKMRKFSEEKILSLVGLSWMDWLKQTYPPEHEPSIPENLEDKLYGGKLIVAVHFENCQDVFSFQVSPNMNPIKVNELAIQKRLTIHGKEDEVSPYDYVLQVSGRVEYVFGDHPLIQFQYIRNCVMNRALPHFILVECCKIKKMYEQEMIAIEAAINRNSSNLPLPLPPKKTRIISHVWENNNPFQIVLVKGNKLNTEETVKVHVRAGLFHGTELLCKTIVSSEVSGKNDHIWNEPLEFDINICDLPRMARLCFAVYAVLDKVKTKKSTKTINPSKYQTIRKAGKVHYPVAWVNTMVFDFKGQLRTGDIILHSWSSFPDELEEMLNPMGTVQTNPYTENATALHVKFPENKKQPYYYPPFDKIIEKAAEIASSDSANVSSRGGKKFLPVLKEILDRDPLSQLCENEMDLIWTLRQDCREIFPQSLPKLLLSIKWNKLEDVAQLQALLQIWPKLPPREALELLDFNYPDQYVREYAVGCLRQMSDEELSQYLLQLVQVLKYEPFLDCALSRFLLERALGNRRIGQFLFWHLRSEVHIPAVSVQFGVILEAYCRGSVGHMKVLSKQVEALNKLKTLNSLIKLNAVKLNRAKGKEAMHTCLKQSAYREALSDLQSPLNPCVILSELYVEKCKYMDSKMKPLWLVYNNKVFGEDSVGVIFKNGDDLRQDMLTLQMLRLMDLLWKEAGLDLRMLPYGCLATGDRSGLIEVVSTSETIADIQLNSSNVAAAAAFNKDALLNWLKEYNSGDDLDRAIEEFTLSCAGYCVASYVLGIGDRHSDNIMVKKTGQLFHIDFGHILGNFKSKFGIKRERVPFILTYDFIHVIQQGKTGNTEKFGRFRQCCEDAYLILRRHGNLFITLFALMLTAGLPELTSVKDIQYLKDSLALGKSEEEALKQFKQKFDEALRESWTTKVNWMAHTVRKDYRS
T3 sequence (P27986 whole entry partner): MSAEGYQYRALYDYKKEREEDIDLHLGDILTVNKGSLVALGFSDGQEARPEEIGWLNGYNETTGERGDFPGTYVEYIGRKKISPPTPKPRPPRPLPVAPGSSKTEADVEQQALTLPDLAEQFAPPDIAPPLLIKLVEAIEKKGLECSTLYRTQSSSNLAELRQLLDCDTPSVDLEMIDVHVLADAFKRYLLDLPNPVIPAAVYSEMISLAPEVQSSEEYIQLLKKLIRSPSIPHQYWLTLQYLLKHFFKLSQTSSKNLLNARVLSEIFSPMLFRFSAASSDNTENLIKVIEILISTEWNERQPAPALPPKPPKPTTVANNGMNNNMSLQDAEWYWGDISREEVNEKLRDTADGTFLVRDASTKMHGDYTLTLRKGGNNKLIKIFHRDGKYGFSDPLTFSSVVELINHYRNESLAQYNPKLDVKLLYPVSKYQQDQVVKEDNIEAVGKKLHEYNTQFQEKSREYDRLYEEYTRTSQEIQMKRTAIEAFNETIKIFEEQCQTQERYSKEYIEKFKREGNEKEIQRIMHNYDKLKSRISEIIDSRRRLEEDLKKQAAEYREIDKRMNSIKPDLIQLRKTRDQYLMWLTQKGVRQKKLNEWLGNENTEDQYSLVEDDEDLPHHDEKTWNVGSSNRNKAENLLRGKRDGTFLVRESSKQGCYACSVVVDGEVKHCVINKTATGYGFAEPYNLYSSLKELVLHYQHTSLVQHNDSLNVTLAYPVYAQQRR
T1 sequence (O00329 whole entry): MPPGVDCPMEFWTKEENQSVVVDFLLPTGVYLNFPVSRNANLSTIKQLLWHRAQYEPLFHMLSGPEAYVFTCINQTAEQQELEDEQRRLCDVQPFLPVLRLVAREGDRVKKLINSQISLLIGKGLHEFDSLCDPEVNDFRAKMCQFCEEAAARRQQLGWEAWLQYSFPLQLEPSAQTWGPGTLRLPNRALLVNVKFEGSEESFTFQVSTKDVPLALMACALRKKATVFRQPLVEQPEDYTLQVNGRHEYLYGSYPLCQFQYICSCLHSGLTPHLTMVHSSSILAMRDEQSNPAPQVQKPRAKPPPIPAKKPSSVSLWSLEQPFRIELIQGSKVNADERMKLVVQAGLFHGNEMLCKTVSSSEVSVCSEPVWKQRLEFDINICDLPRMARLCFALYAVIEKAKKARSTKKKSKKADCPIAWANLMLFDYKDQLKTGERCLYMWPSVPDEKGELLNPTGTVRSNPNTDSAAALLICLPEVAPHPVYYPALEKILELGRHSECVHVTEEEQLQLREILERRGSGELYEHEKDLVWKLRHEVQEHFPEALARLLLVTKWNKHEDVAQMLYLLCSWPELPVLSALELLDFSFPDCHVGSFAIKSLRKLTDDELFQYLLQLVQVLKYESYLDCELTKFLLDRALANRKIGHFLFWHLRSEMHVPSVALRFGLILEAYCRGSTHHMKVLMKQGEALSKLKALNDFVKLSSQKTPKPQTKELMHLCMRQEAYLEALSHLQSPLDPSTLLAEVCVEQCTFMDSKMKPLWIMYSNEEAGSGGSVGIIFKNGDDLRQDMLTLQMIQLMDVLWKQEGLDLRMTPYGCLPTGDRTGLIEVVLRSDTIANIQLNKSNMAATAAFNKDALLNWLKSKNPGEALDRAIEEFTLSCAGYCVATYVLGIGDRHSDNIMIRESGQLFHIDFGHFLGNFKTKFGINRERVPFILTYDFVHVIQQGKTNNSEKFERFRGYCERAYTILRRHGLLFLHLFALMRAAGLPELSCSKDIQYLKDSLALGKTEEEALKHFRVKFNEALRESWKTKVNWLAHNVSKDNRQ
T1 sequence (P27986 whole entry partner): as the sequence (P27986 whole entry partner) above

| IC50 ([1]; Table 2a, same assay) | IC50 ([2]; Table 2a, same assay) | IC50 ([3]; Table 2a, same assay) | IC50 [1, 4] | IC50 [2, 4] | IC50 [3, 4] | Structure (SMILES) |
| --- | --- | --- | --- | --- | --- | --- |
| 1 nM | 170 nM | 0.9 nM | – | – | – | N#Cc1c(N)nc(N)nc1N[C@H](c1nc2c(Cl)cc(F)cc2c(=O)n1-c1cn[nH]c1)C1CC1 [Compound 269, (S)-2,4-diamino-6-(((8-chloro-6-fluoro-4-oxo-3-(1H-pyrazol-4-yl)-3,4-dihydroquinazolin-2-yl)(cyclopropyl)methyl)amino)pyrimidine-5-carbonitrile] |
| 12 nM | 9600 nM | 11 nM | – | – | – | C[C@H](Nc1nc(N)nc(N)c1C#N)c1nc2cc(F)cc(F)c2c(=O)n1-c1cc[nH]n1 [Compound 235, (S)-2,4-diamino-6-((1-(5,7-difluoro-4-oxo-3-(1H-pyrazol-3-yl)-3,4-dihydroquinazolin-2-yl)ethyl)amino)pyrimidine-5-carbonitrile] |
| – | – | – | 9 nM | 3500 nM | 150 nM | CC[C@H](Nc1nc(N)nc(N)c1C#N)c1nc2cccc(Cl)c2c(=O)n1-c1cc(CCCOC)[nH]n1 [Compound 49, (S)-2,4-diamino-6-((1-(5-chloro-3-(5-(3-methoxypropyl)-1H-pyrazol-3-yl)-4-oxo-3,4-dihydroquinazolin-2-yl)propyl)amino)pyrimidine-5-carbonitrile] |
| – | – | – | 4 nM | 9000 nM | 170 nM | C[C@H](Nc1ncnc2scnc12)c1nc2c(Cl)ccc(Cl)c2c(=O)n1-c1n[nH]cc1Br [Compound 85, (S)-3-(4-bromo-1H-pyrazol-3-yl)-5,8-dichloro-2-(1-(thiazolo[5,4-d]pyrimidin-7-ylamino)ethyl)quinazolin-4(3H)-one] |
| 50 nM | 390 nM | 43 nM | – | – | – | C[C@H](NC(=O)c1nc(Cl)c(N)nc1N)c1nc2c(F)ccc(Cl)c2c(=O)n1-c1cc[nH]n1 [Compound 277, (S)-3,5-diamino-6-chloro-N-(1-(5-chloro-8-fluoro-4-oxo-3-(1H-pyrazol-3-yl)-3,4-dihydroquinazolin-2-yl)ethyl)pyrazine-2-carboxamide] |
| 19 nM | 6600 nM | 37 nM | – | – | – | Nc1nc(N)c(Cl)c(N[C@H](c2nc3cccc(C(F)(F)F)c3c(=O)n2-c2cc[nH]n2)C2CC2)n1 [Compound 210, (S)-2-(cyclopropyl((2,6-diamino-5-chloropyrimidin-4-yl)amino)methyl)-3-(1H-pyrazol-3-yl)-5-(trifluoromethyl)quinazolin-4(3H)-one] |

Continued, compound first:

| Structure (SMILES) | IC50 ([1]; Table 2a, same assay) | IC50 ([2]; Table 2a, same assay) | IC50 ([3]; Table 2a, same assay) | IC50 [1, 4] | IC50 [2, 4] | IC50 [3, 4] |
| --- | --- | --- | --- | --- | --- | --- |
| CC[C@H](Nc1nc(N)nc(N)c1C#N)c1nc2cccc(Cl)c2c(=O)n1-c1cn[nH]c1 [Compound 21, (S)-2,4-diamino-6-((1-(5-chloro-4-oxo-3-(1H-pyrazol-4-yl)-3,4-dihydroquinazolin-2-yl)propyl)amino)pyrimidine-5-carbonitrile] | – | – | – | 2 nM | 230 nM | 9 nM |
| CC[C@H](Nc1nc(N)nc(N)c1C#N)c1nc2cccc(Cl)c2c(=O)n1-c1cc[nH]n1 [Compound 1, (S)-2,4-diamino-6-((1-(5-chloro-4-oxo-3-(1H-pyrazol-3-yl)-3,4-dihydroquinazolin-2-yl)propyl)amino)pyrimidine-5-carbonitrile] | – | – | – | 0.6 nM | 330 nM | 1 nM |
| C[C@H](Nc1nc(N)nc(N)c1Cl)c1nc2ccc(F)c(Cl)c2c(=O)n1-c1cn[nH]c1 [Compound 263, (S)-5-chloro-2-(1-((2,6-diamino-5-chloropyrimidin-4-yl)amino)ethyl)-6-fluoro-3-(1H-pyrazol-4-yl)quinazolin-4(3H)-one] | 20 nM | 1200 nM | 190 nM | – | – | – |
| CC[C@H](Nc1nc(N)nc(N)c1C#N)c1nc2c(C)cccc2c(=O)n1-c1cc[nH]n1 [Compound 34, (S)-2,4-diamino-6-((1-(8-methyl-4-oxo-3-(1H-pyrazol-3-yl)-3,4-dihydroquinazolin-2-yl)propyl)amino)pyrimidine-5-carbonitrile] | – | – | – | 8 nM | 6100 nM | 7 nM |
